The record followed here is patent US11591341B2 (ALIGOS THERAPEUTICS, INC., priority 2019, dated 2023).

This assay deals with HBV. Put plainly: HBV-DNA Antiviral Assay Using HepG2.117 Cells (intracellular HBV DNA by qPCR). The format is cell-based, hepatitis B virus (genotype D). Particulars: Hepatitis B virus, HepG2.117. A digest of the protocol: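 Endpoint: qPCR copy number of intracellular HBV DNA after 3-day compound exposure, with inhibition set relative to the 2% DMSO control. The cells were doxycycline-free HepG2.117 carrying a Tet-off genotype D genome, dosed at nine 4-fold dilutions. A duplicate plate gave ATP-based viability (CC50).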
(In general: Real-time PCR tracks product formation cycle by cycle.)
On to `CC(C)Oc1ccc(-n2c(C(=O)N[C@@H](C)c3ccccc3)c3n(c2=O)CCN(C(=O)c2ccc(Cl)c(Cl)c2)C3)cc1` (stereo in doubt) [Example 129, 7-(3,4-dichlorobenzoyl)-2-(4-isopropoxyphenyl)-3-oxo-N-[rac-(1S)-1-phenylethyl]-6,8-dihydro-5H-imidazo[1,5-a]pyrazine-1-carboxamide], for which the concentration giving a half-maximal response (EC50) was 500 to 5000 nM.
As for `CC(C)Oc1ccc(-n2c(C(=O)N[C@H](C)c3ccccc3)c3n(c2=O)CCN(C(=O)c2ccc(Cl)c(Cl)c2)C3)cc1` (stereo in doubt) [Example 130, 7-(3,4-dichlorobenzoyl)-2-(4-isopropoxyphenyl)-3-oxo-N-[rac-(1R)-1-phenylethyl]-6,8-dihydro-5H-imidazo[1,5-a]pyrazine-1-carboxamide], the figure is 100 to 500 nM; as for `C[C@H](NC(=O)c1c2n(c(=O)n1-c1ccc(OC3CCC3)cc1)CCN(C(=O)c1ccc(Br)c(Cl)c1)C2)c1ccccc1` (stereo in doubt) [Example 136, 7-(4-bromo-3-chloro-benzoyl)-2-[4-(cyclobutoxy)phenyl]-3-oxo-N-[rac-(1S)-1-phenylethyl]-6,8-dihydro-5H-imidazo[1,5-a]pyrazine-1-carboxamide], 100 to 500 nM; as for `C[C@@H](NC(=O)c1c2n(c(=O)n1-c1ccc(OC3CCC3)cc1)CCN(C(=O)c1ccc(Br)c(Cl)c1)C2)c1ccccc1` (stereo in doubt) [Example 137, 7-(4-bromo-3-chloro-benzoyl)-2-[4-(cyclobutoxy)phenyl]-3-oxo-N-[rac-(1R)-1-phenylethyl]-6,8-dihydro-5H-imidazo[1,5-a]pyrazine-1-carboxamide], 100 to 500 nM.
`O=C(c1ccc(Br)c(Cl)c1)N1CCn2c(c3n(c2=O)C[C@H](CO)CN(Cc2ccccc2)C3=O)C1` (stereo in doubt) [Example 146, rac-(11R)-13-benzyl-4-(4-bromo-3-chloro-benzoyl)-11-(hydroxymethyl)-4,7,9,13-tetrazatricyclo[7.5.0.0^2,7]tetradec-1-ene-8,14-dione]: the concentration for a half-maximal effect (EC50) lay within 100 to 500 nM.
To `O=C(c1ccc(Br)c(Cl)c1)N1CCn2c(c3n(c2=O)C[C@@H](CO)CN(Cc2ccccc2)C3=O)C1` (stereo in doubt) [Example 147, rac-(11S)-13-benzyl-4-(4-bromo-3-chloro-benzoyl)-11-(hydroxymethyl)-4,7,9,13-tetrazatricyclo[7.5.0.0^2,7]tetradec-1-ene-8,14-dione] belongs 100 to 500 nM; to `CC[C@@H](NC(=O)c1c2n(c(=O)n1-c1ccc(OC)cc1)CCN(C(=O)c1ccc(Br)c(Cl)c1)C2)c1ccccc1` (stereo in doubt) [Example 150, 7-(4-bromo-3-chloro-benzoyl)-2-(4-methoxyphenyl)-3-oxo-N-[rac-(1R)-1-phenylpropyl]-6,8-dihydro-5H-imidazo[1,5-a]pyrazine-1-carboxamide], 100 to 500 nM.
To `CC[C@H](NC(=O)c1c2n(c(=O)n1-c1ccc(OC)cc1)CCN(C(=O)c1ccc(Br)c(Cl)c1)C2)c1ccccc1` (stereo in doubt) [Example 151, 7-(4-bromo-3-chloro-benzoyl)-2-(4-methoxyphenyl)-3-oxo-N-[rac-(1S)-1-phenylpropyl]-6,8-dihydro-5H-imidazo[1,5-a]pyrazine-1-carboxamide] belongs 100 to 500 nM; to `COc1ccc(-n2c(C(=O)N[C@H](C)c3ccccc3F)c3n(c2=O)CCN(C(=O)c2ccc(Br)c(Cl)c2)C3)cc1` (stereo in doubt) [Example 161, 7-(4-bromo-3-chloro-benzoyl)-2-(4-methoxyphenyl)-3-oxo-N-[rac-(1R)-1-(2-fluorophenyl)ethyl]-6,8-dihydro-5H-imidazo[1,5-a]pyrazine-1-carboxamide], < 100 nM.
To `COc1ccc(-n2c(C(=O)N[C@@H](C)c3ccccc3F)c3n(c2=O)CCN(C(=O)c2ccc(Br)c(Cl)c2)C3)cc1` (stereo in doubt) [Example 162, 7-(4-bromo-3-chloro-benzoyl)-2-(4-methoxyphenyl)-3-oxo-N-[rac-(1S)-1-(2-fluorophenyl)ethyl]-6,8-dihydro-5H-imidazo[1,5-a]pyrazine-1-carboxamide] belongs 100 to 500 nM.
In the case of `C[C@H](NC(=O)c1c2n(c(=O)n1-c1ccc(OC3COC3)cc1)CCN(C(=O)c1ccc(Br)c(Cl)c1)C2)c1ccccc1` (stereo in doubt) [Example 169, 7-(4-bromo-3-chloro-benzoyl)-2-[4-(oxetan-3-yloxy)phenyl]-3-oxo-N-[rac-(1S)-1-phenylethyl]-6,8-dihydro-5H-imidazo[1,5-a]pyrazine-1-carboxamide], the 50% effective concentration (EC50) lay within 500 to 5000 nM.
As to `C[C@@H](NC(=O)c1c2n(c(=O)n1-c1ccc(OC3COC3)cc1)CCN(C(=O)c1ccc(Br)c(Cl)c1)C2)c1ccccc1` (stereo in doubt) [Example 170, 7-(4-bromo-3-chloro-benzoyl)-2-[4-(oxetan-3-yloxy)phenyl]-3-oxo-N-[rac-(1R)-1-phenylethyl]-6,8-dihydro-5H-imidazo[1,5-a]pyrazine-1-carboxamide], the EC50 was in the range of 100 to 500 nM.
`O=C(c1ccc(Br)c(Cl)c1)N1CCn2c(c3n(c2=O)C[C@H](O)CN(Cc2ccccc2)C3=O)C1` (stereo in doubt) [Example 174, rac-(11R)-13-benzyl-4-(4-bromo-3-chloro-benzoyl)-11-hydroxy-4,7,9,13-tetrazatricyclo[7.5.0.0^2,7]tetradec-1-ene-8.14-dione] had an EC50 of 500 to 5000 nM.
Turning to `O=C(c1ccc(Br)c(Cl)c1)N1CCn2c(c3n(c2=O)C[C@@H](O)CN(Cc2ccccc2)C3=O)C1` (stereo in doubt) [Example 175, rac-(11S)-13-benzyl-4-(4-bromo-3-chloro-benzoyl)-11-hydroxy-4,7,9,13-tetrazatricyclo[7.5.0.0^2,7]tetradec-1-ene-8.14-dione], the EC50 lay in the range of 500 to 5000 nM.
`C[C@@H](NC(=O)c1c2n(c(=O)n1C1CC1)CCN(C(=O)c1ccc(Br)c(Cl)c1)C2)c1ccccc1` (stereo in doubt) [Example 189, 7-(4-bromo-3-chloro-benzoyl)-2-cyclopropyl-3-oxo-N-[rac-(1R)-1-phenylethyl]-6,8-dihydro-5H-imidazo[1,5-a]pyrazine-1-carboxamide] came in with an EC50 of 500 to 5000 nM.
As for `C[C@H](NC(=O)c1c2n(c(=O)n1C1CC1)CCN(C(=O)c1ccc(Br)c(Cl)c1)C2)c1ccccc1` (stereo in doubt) [Example 190, 7-(4-bromo-3-chloro-benzoyl)-2-cyclopropyl-3-oxo-N-[rac-(1S)-1-phenylethyl]-6,8-dihydro-5H-imidazo[1,5-a]pyrazine-1-carboxamide], the figure is 500 to 5000 nM.
In turn, `COc1ccc(CN2C[C@@H](O)Cn3c(c4n(c3=O)CCN(C(=O)c3ccc(Br)c(Cl)c3)C4)C2=O)cc1` (stereo in doubt) [Example 193, rac-(11R)-4-(4-bromo-3-chloro-benzoyl)-11-hydroxy-13-[(4-methoxyphenyl)methyl]-4,7,9,13-tetrazatricyclo[7.5.0.0^2,7]tetradec-1-ene-8,14-dione] registered an EC50 of 100 to 500 nM.
`COc1ccc(CN2C[C@H](O)Cn3c(c4n(c3=O)CCN(C(=O)c3ccc(Br)c(Cl)c3)C4)C2=O)cc1` (stereo in doubt) [Example 194, rac-(11S)-4-(4-bromo-3-chloro-benzoyl)-11-hydroxy-13-[(4-methoxyphenyl)methyl]-4,7,9,13-tetrazatricyclo[7.5.0.0^2,7]tetradec-1-ene-8,14-dione] displayed a concentration giving a half-maximal response (EC50) of 100 to 500 nM.
As for `O=C(c1ccc(Br)c(Cl)c1)N1CCn2c(c3n(c2=O)C[C@H](F)CN(Cc2ccccc2)C3=O)C1` (stereo in doubt) [Example 200, rac-(11R)-13-benzyl-4-(4-bromo-3-chloro-benzoyl)-11-fluoro-4,7,9,13-tetrazatricyclo[7.5.0.0^2,7]tetradec-1-ene-8,14-dione], the figure is 100 to 500 nM; as for `O=C(c1ccc(Br)c(Cl)c1)N1CCn2c(c3n(c2=O)C[C@@H](F)CN(Cc2ccccc2)C3=O)C1` (stereo in doubt) [Example 201, rac-(11S)-13-benzyl-4-(4-bromo-3-chloro-benzoyl)-11-fluoro-4,7,9,13-tetrazatricyclo[7.5.0.0^2,7]tetradec-1-ene-8,14-dione], 100 to 500 nM.
Take `C[C@H](c1ccccc1)N1C[C@@H](O)Cn2c(c3n(c2=O)CCN(C(=O)c2ccc(Br)c(Cl)c2)C3)C1=O` (stereo in doubt) [Example 202, (11RS)-4-(4-bromo-3-chloro-benzoyl)-11-hydroxy-13-[(1R)-1-phenylethyl]-4,7,9,13-tetrazatricyclo[7.5.0.0^2,7]tetradec-1-ene-8.14-dione]: the EC50 fell in the range of 100 to 500 nM.
In turn, `C[C@H](c1ccccc1)N1C[C@H](O)Cn2c(c3n(c2=O)CCN(C(=O)c2ccc(Br)c(Cl)c2)C3)C1=O` (stereo in doubt) [Example 203, (11SR)-4-(4-bromo-3-chloro-benzoyl)-11-hydroxy-13-[(1R)-1-phenylethyl]-4,7,9,13-tetrazatricyclo[7.5.0.0^2,7]tetradec-1-ene-8,14-dione] showed a half-maximal effective concentration (EC50) of 100 to 500 nM.
As for `COc1ccc(-n2c(C(=O)N[C@H](c3ccccc3)C(F)(F)F)c3n(c2=O)CCN(C(=O)c2ccc(Br)c(Cl)c2)C3)cc1` (stereo in doubt) [Example 208, 7-(4-bromo-3-chloro-benzoyl)-2-(4-methoxyphenyl)-3-oxo-N-[rac-(1R)-2,2,2-trifluoro-1-phenyl-ethyl]-6,8-dihydro-5H-imidazo[1,5-a]pyrazine-1-carboxamide], the figure is 100 to 500 nM; as for `COc1ccc(-n2c(C(=O)N[C@@H](c3ccccc3)C(F)(F)F)c3n(c2=O)CCN(C(=O)c2ccc(Br)c(Cl)c2)C3)cc1` (stereo in doubt) [Example 209, 7-(4-bromo-3-chloro-benozyl)-2-(4-methoxyphenyl)-3-oxo-N-[rac-(1S)-2,2,2-trifluoro-1-phenyl-ethyl]-6,8-dihydro-5H-imidazo[1,5-a]pyrazine-1-carboxamide], 100 to 500 nM.

For orientation: EC50 means the midpoint of the concentration-response curve.
